Results reported in publication PMC5218480 (PLoS ONE, 2017).

System: MV-4-11 cells
Assay: Gene expression microarray analysis (Affymetrix PrimeView) and GSEA
Format: cell-based, human
Design: RFU PODN (11730768_x_at) / Fold change /veh PODN (11730768_x_at) / RFU LINC00158 (11744669_a_at) / Fold change /veh LINC00158 (11744669_a_at) / RFU DUSP10 (11751237_a_at) / Fold change /veh DUSP10 (11751237_a_at) / RFU ID3 (11757404_x_at) / Fold change /veh ID3 (11757404_x_at) / RFU PLEKHG5 (11737974_s_at) / Fold change /veh PLEKHG5 (11737974_s_at) / RFU LRRC4B (11730491_at) / Fold change /veh LRRC4B (11730491_at) / RFU GIMAP4 (11747438_a_at) / Fold change /veh GIMAP4 (11747438_a_at) / RFU KRT8 (11758183_x_at) / Fold change /veh KRT8 (11758183_x_at) / RFU CNN1 (11734310_a_at) / Fold change /veh CNN1 (11734310_a_at) / RFU VPS37D (11726825_at) / Fold change /veh VPS37D (11726825_at) / RFU C10orf10 (11716522_x_at) / Fold change /veh C10orf10 (11716522_x_at) / RFU KIR2DL2 /// KIR2DL4 /// KIR2DL5A /// KIR2DL5B /// KIR2DS1 /// KIR2DS2 /// KIR2DS3 /// KIR2DS4 /// KIR3DL3 /// KIR3DL3 /// KIR3DS1 (11738374_at) / Fold change /veh KIR2DL2 /// KIR2DL4 /// KIR2DL5A /// KIR2DL5B /// KIR2DS1 /// KIR2DS2 /// KIR2DS3 /// KIR2DS4 /// KIR3DL3 /// KIR3DL3 /// KIR3DS1 (11738374_at) / RFU C1QL1 (11718748_at) / Fold change /veh C1QL1 (11718748_at) / RFU TMPRSS4 (11747572_a_at) / Fold change /veh TMPRSS4 (11747572_a_at) / RFU HAMP (11756126_x_at) / Fold change /veh HAMP (11756126_x_at) / RFU RNFT2 (11725882_a_at) / Fold change /veh RNFT2 (11725882_a_at) / RFU NR4A2 (11747474_a_at) / Fold change /veh NR4A2 (11747474_a_at) / RFU ABCC12 (11746883_a_at) / Fold change /veh ABCC12 (11746883_a_at) / RFU TMEM136 (11760407_x_at) / Fold change /veh TMEM136 (11760407_x_at) / RFU CLDN22 /// WWC2 (11732394_at) / Fold change /veh CLDN22 /// WWC2 (11732394_at) / RFU HLA-DPB1 (11760878_x_at) / Fold change /veh HLA-DPB1 (11760878_x_at) / RFU SPINT1 (11716480_a_at) / Fold change /veh SPINT1 (11716480_a_at) / RFU GAP43 (11754022_s_at) / Fold change /veh GAP43 (11754022_s_at) / RFU A4GNT (11735810_at) / Fold change /veh A4GNT (11735810_at) / RFU PRB3 (11715151_x_at) / Fold change /veh PRB3 (11715151_x_at) / RFU TUBB4B (11761932_at) / Fold change /veh TUBB4B (11761932_at) / RFU CAPN14 (11732068_a_at) / Fold change /veh CAPN14 (11732068_a_at) / RFU TMCC2 (11721928_a_at) / Fold change /veh TMCC2 (11721928_a_at) / RFU IRGQ (11745062_a_at) / Fold change /veh IRGQ (11745062_a_at) / RFU FAM174B (11720279_a_at) / Fold change /veh FAM174B (11720279_a_at) / RFU TMPRSS4 (11748680_a_at) / Fold change /veh TMPRSS4 (11748680_a_at) / RFU FAM212B (11763350_a_at) / Fold change /veh FAM212B (11763350_a_at) / RFU PLEKHG5 (11743358_a_at) / Fold change /veh PLEKHG5 (11743358_a_at) / RFU ZSCAN30 (11745921_a_at) / Fold change /veh ZSCAN30 (11745921_a_at) / RFU CMKLR1 (11741424_a_at) / Fold change /veh CMKLR1 (11741424_a_at) / RFU LOC101060620 /// MAPK8IP1 (11723275_at) / Fold change /veh LOC101060620 /// MAPK8IP1 (11723275_at) / RFU SPTSSB (11747773_x_at) / Fold change /veh SPTSSB (11747773_x_at) / RFU PRSS12 (11739890_at) / Fold change /veh PRSS12 (11739890_at) / RFU BIN1 (11741810_x_at) / Fold change /veh BIN1 (11741810_x_at) / RFU WNT11 (11732464_a_at) / Fold change /veh WNT11 (11732464_a_at) / RFU C10orf10 (11716521_a_at) / Fold change /veh C10orf10 (11716521_a_at) / RFU C5orf56 (11738089_at) / Fold change /veh C5orf56 (11738089_at) / RFU CYB561 (11721691_x_at) / Fold change /veh CYB561 (11721691_x_at) / RFU ANKRD19P (11752326_a_at) / Fold change /veh ANKRD19P (11752326_a_at) / RFU OR2T12 /// OR2T33 /// OR2T8 (11738714_s_at) / Fold change /veh OR2T12 /// OR2T33 /// OR2T8 (11738714_s_at) / RFU VCAN (11748164_a_at) / Fold change /veh VCAN (11748164_a_at) / RFU JSRP1 (11732532_at) / Fold change /veh JSRP1 (11732532_at) / RFU KRTAP10-11 (11738290_x_at) / Fold change /veh KRTAP10-11 (11738290_x_at) / RFU MYO3A (11730013_a_at) / Fold change /veh MYO3A (11730013_a_at) / RFU EBF3 (11725865_a_at) / Fold change /veh EBF3 (11725865_a_at) / RFU CAMK2N1 (11719241_x_at) / Fold change /veh CAMK2N1 (11719241_x_at) / RFU C5orf56 (11738088_a_at) / Fold change /veh C5orf56 (11738088_a_at) / RFU OLFML3 (11715873_a_at) / Fold change /veh OLFML3 (11715873_a_at) / RFU LOC100653217 /// NTM (11731650_a_at) / Fold change /veh LOC100653217 /// NTM (11731650_a_at) / RFU MAPK11 (11762145_a_at) / Fold change /veh MAPK11 (11762145_a_at) / RFU FIZ1 (11724087_x_at) / Fold change /veh FIZ1 (11724087_x_at) / RFU OASL (11726364_x_at) / Fold change /veh OASL (11726364_x_at) / RFU SOX15 (11748057_x_at) / Fold change /veh SOX15 (11748057_x_at) / RFU CD79A (11719716_a_at) / Fold change /veh CD79A (11719716_a_at) / RFU HIST1H1D (11736915_at) / Fold change /veh HIST1H1D (11736915_at) / RFU CASKIN2 (11723855_a_at) / Fold change /veh CASKIN2 (11723855_a_at) / RFU LOC730098 (11760151_x_at) / Fold change /veh LOC730098 (11760151_x_at) / RFU OR4N2 (11742367_at) / Fold change /veh OR4N2 (11742367_at) / RFU PRRT2 (11749266_a_at) / Fold change /veh PRRT2 (11749266_a_at) / RFU SNX32 (11753110_a_at) / Fold change /veh SNX32 (11753110_a_at) / RFU CDHR5 (11726645_a_at) / Fold change /veh CDHR5 (11726645_a_at) / RFU RCAN1 (11760418_a_at) / Fold change /veh RCAN1 (11760418_a_at) / RFU FAM167A (11723789_a_at) / Fold change /veh FAM167A (11723789_a_at) / RFU FAM26E (11764081_at) / Fold change /veh FAM26E (11764081_at) / RFU ISYNA1 (11749810_s_at) / Fold change /veh ISYNA1 (11749810_s_at) / RFU ACY1 (11761880_at) / Fold change /veh ACY1 (11761880_at) / RFU 11764098_at / Fold change /veh 11764098_at / RFU SAMD14 (11745864_x_at) / Fold change /veh SAMD14 (11745864_x_at) / RFU NPB (11741838_a_at) / Fold change /veh NPB (11741838_a_at) / RFU TMPRSS6 (11731388_a_at) / Fold change /veh TMPRSS6 (11731388_a_at) / RFU KRTAP10-2 (11738614_at) / Fold change /veh KRTAP10-2 (11738614_at) / RFU ARHGAP8 /// PRR5-ARHGAP8 (11727945_x_at) / Fold change /veh ARHGAP8 /// PRR5-ARHGAP8 (11727945_x_at) / RFU KRTAP5-7 /// NADSYN1 (11734609_at) / Fold change /veh KRTAP5-7 /// NADSYN1 (11734609_at) / RFU RASL12 (11751679_a_at) / Fold change /veh RASL12 (11751679_a_at) / RFU CDKN2B (11736163_a_at) / Fold change /veh CDKN2B (11736163_a_at) / RFU PRF1 (11729649_at) / Fold change /veh PRF1 (11729649_at) / RFU, ZNF638 /// ZNF638-IT1 / Fold change vs veh, ZNF638 /// ZNF638-IT1 / RFU, PANK3 / Fold change vs veh, PANK3 / RFU, SH3YL1 / Fold change vs veh, SH3YL1 / RFU, ZEB2 / Fold change vs veh, ZEB2 / RFU, NRIP1 / Fold change vs veh, NRIP1 / RFU, PTTG1IP / Fold change vs veh, PTTG1IP / RFU, CAPN2 / Fold change vs veh, CAPN2 / RFU, MED14 / Fold change vs veh, MED14 / RFU, SNORA58 / Fold change vs veh, SNORA58 / RFU, C1orf63 / Fold change vs veh, C1orf63 / RFU, LRRFIP1 / Fold change vs veh, LRRFIP1 / RFU, NDUFAF7 / Fold change vs veh, NDUFAF7 / RFU, SLC12A2 / Fold change vs veh, SLC12A2 / RFU, IBTK / Fold change vs veh, IBTK / RFU, ESF1 / Fold change vs veh, ESF1 / Fold change vs veh, TMEM50B / RFU, TAOK1 / Fold change vs veh, TAOK1 / RFU, ACBD3 / Fold change vs veh, ACBD3 / RFU, TMA16 / Fold change vs veh, TMA16 / RFU, RWDD3 / Fold change vs veh, RWDD3 / RFU, BCAT1 / Fold change vs veh, BCAT1 / RFU, EDEM3 / Fold change vs veh, EDEM3 / RFU, TMEM33 / Fold change vs veh, TMEM33 / RFU, WDR75 / Fold change vs veh, WDR75 / RFU, AHCTF1 / Fold change vs veh, AHCTF1 / RFU, TFRC / Fold change vs veh, TFRC / RFU, ZDHHC17 / Fold change vs veh, ZDHHC17 / RFU, NOM1 / Fold change vs veh, NOM1 / RFU, ARL8B / Fold change vs veh, ARL8B / RFU, ZBTB11 / Fold change vs veh, ZBTB11 / RFU, TAMM41 / Fold change vs veh, TAMM41 / RFU, KIAA1704 /// LOC100996395 / Fold change vs veh, KIAA1704 /// LOC100996395 / RFU, ING1 / Fold change vs veh, ING1 / RFU, TRMT61B / Fold change vs veh, TRMT61B / RFU, FUBP3 / Fold change vs veh, FUBP3 / RFU, TP53 / Fold change vs veh, TP53 / RFU, TNKS2 / Fold change vs veh, TNKS2 / RFU, ZFP14 / Fold change vs veh, ZFP14 / RFU, ACTR2 / Fold change vs veh, ACTR2 / RFU, PPP3R1 / Fold change vs veh, PPP3R1 / RFU, PIK3R1 / Fold change vs veh, PIK3R1 / RFU, HNRNPA1 / Fold change vs veh, HNRNPA1 / RFU, RNF170 / Fold change vs veh, RNF170 / RFU, ZNF28 / Fold change vs veh, ZNF28 / RFU, RNGTT / Fold change vs veh, RNGTT / RFU, OGT / Fold change vs veh, OGT / RFU, BRD1 / Fold change vs veh, BRD1 / RFU, MARS / Fold change vs veh, MARS / RFU, ZNF655 / Fold change vs veh, ZNF655 / RFU, FAHD1 / Fold change vs veh, FAHD1 / RFU, BDP1 / Fold change vs veh, BDP1 / RFU, LRRCC1 / Fold change vs veh, LRRCC1 / RFU, ARID1A / Fold change vs veh, ARID1A / RFU, ZNF146 / Fold change vs veh, ZNF146 / RFU, ZNF330 / Fold change vs veh, ZNF330 / RFU, GPN3 / Fold change vs veh, GPN3 / RFU, C9orf123 / Fold change vs veh, C9orf123 / RFU, N4BP2L2 / Fold change vs veh, N4BP2L2 / RFU, ARFIP1 / Fold change vs veh, ARFIP1 / RFU, FAM179B / Fold change vs veh, FAM179B / RFU, BCL10 / Fold change vs veh, BCL10 / RFU, UHRF1BP1L / Fold change vs veh, UHRF1BP1L / RFU, BET1 / Fold change vs veh, BET1 / RFU, CNOT2 / Fold change vs veh, CNOT2 / RFU, ZNF268 / Fold change vs veh, ZNF268 / Fold change vs veh, ZNF507 / RFU, DGCR2 / Fold change vs veh, DGCR2 / RFU, WDSUB1 / Fold change vs veh, WDSUB1 / Fold change vs veh, HSP90B1 /// MIR3652 / RFU, ADSS / Fold change vs veh, ADSS / RFU, GK / Fold change vs veh, GK / RFU, ZNF148 / Fold change vs veh, ZNF148 / RFU, TAF9 / Fold change vs veh, TAF9 / RFU, SLC1A5 / Fold change vs veh, SLC1A5 / RFU, SLMO2 / Fold change vs veh, SLMO2 / RFU, ABCC4 / Fold change vs veh, ABCC4 / RFU, LOC101060439 /// RAP1B / Fold change vs veh, LOC101060439 /// RAP1B / RFU, RFX7 / Fold change vs veh, RFX7 / RFU, GTPBP10 / Fold change vs veh, GTPBP10 / RFU, CNEP1R1 / Fold change vs veh, CNEP1R1 / RFU, BIVM-ERCC5 /// ERCC5 / Fold change vs veh, BIVM-ERCC5 /// ERCC5 / RFU, ILF3 / Fold change vs veh, ILF3 / RFU 11762660_at / Fold change /veh 11762660_at / RFU VCAN (11757783_s_at) / Fold change /veh VCAN (11757783_s_at) / RFU DDX43 (11728927_at) / Fold change /veh DDX43 (11728927_at) / RFU KRT8 (11758188_x_at) / Fold change /veh KRT8 (11758188_x_at) / RFU NKD1 (11759106_at) / Fold change /veh NKD1 (11759106_at) / RFU SRD5A1 (11742802_a_at) / Fold change /veh SRD5A1 (11742802_a_at) / RFU TPSAB1 /// TPSB2 (11721975_s_at) / Fold change /veh TPSAB1 /// TPSB2 (11721975_s_at) / RFU GSTM3 (11746129_a_at) / Fold change /veh GSTM3 (11746129_a_at) / RFU IL23R (11737362_x_at) / Fold change /veh IL23R (11737362_x_at) / RFU TMEM51 (11727254_a_at) / Fold change /veh TMEM51 (11727254_a_at) / RFU PIWIL2 (11732686_x_at) / Fold change /veh PIWIL2 (11732686_x_at) / RFU ORM1 (11744905_x_at) / Fold change /veh ORM1 (11744905_x_at) / RFU CCDC152 (11743942_at) / Fold change /veh CCDC152 (11743942_at) / RFU ECM1 (11717891_a_at) / Fold change /veh ECM1 (11717891_a_at) / RFU IL23R (11748794_a_at) / Fold change /veh IL23R (11748794_a_at) / RFU TNFAIP8L3 (11732012_x_at) / Fold change /veh TNFAIP8L3 (11732012_x_at) / RFU MBOAT4 (11741988_at) / Fold change /veh MBOAT4 (11741988_at) / RFU 11764193_at / Fold change /veh 11764193_at / RFU TMEM53 (11763286_at) / Fold change /veh TMEM53 (11763286_at) / RFU MAGEB2 (11727129_at) / Fold change /veh MAGEB2 (11727129_at) / RFU TMEM200A (11744735_a_at) / Fold change /veh TMEM200A (11744735_a_at) / RFU CCDC152 (11751479_a_at) / Fold change /veh CCDC152 (11751479_a_at) / RFU FAM211A (11726209_a_at) / Fold change /veh FAM211A (11726209_a_at) / RFU RGS16 (11746705_a_at) / Fold change /veh RGS16 (11746705_a_at) / RFU VCAN (11755009_s_at) / Fold change /veh VCAN (11755009_s_at) / RFU RHOB (11743442_s_at) / Fold change /veh RHOB (11743442_s_at) / RFU RGS16 (11720943_a_at) / Fold change /veh RGS16 (11720943_a_at) / RFU RGS16 (11720944_at) / Fold change /veh RGS16 (11720944_at) / RFU, VPS4B / Fold change vs veh, VPS4B / RFU, CREB1 / Fold change vs veh, CREB1 / RFU, DNAJC13 / Fold change vs veh, DNAJC13 / RFU, GNAQ / Fold change vs veh, GNAQ / RFU, CDK5R1 / Fold change vs veh, CDK5R1 / RFU, ZRANB3 / Fold change vs veh, ZRANB3 / RFU, CUL4A / Fold change vs veh, CUL4A / RFU, CCNY / Fold change vs veh, CCNY / RFU, UFL1 / Fold change vs veh, UFL1 / RFU, COG3 / Fold change vs veh, COG3 / RFU, DIAPH2 / Fold change vs veh, DIAPH2 / RFU, SKA2 / Fold change vs veh, SKA2 / RFU, AFF3 / Fold change vs veh, AFF3 / RFU, LMF1 / Fold change vs veh, LMF1 / RFU, IPO11 / Fold change vs veh, IPO11 / RFU, DFFB / Fold change vs veh, DFFB / RFU, FOXP1 / Fold change vs veh, FOXP1 / RFU, CARD8 / Fold change vs veh, CARD8 / RFU, STRN3 / Fold change vs veh, STRN3 / RFU, ADK / Fold change vs veh, ADK / RFU, RASSF2 / Fold change vs veh, RASSF2 / RFU, WIPF1 / Fold change vs veh, WIPF1 / RFU, LARP1B / Fold change vs veh, LARP1B / RFU, RASA1 / Fold change vs veh, RASA1 / RFU, RB1 / Fold change vs veh, RB1 / RFU, PPFIA1 / Fold change vs veh, PPFIA1 / RFU, MAT2A / Fold change vs veh, MAT2A / RFU, CCT5 / Fold change vs veh, CCT5 / RFU, WDR92 / Fold change vs veh, WDR92 / RFU, CUX1 / Fold change vs veh, CUX1 / RFU, TTC7A / Fold change vs veh, TTC7A / RFU, TMEM135 / Fold change vs veh, TMEM135 / RFU, DEPTOR / Fold change vs veh, DEPTOR / RFU, CPM / Fold change vs veh, CPM / RFU, DNAJB6 / Fold change vs veh, DNAJB6 / RFU, CACNA2D3 / Fold change vs veh, CACNA2D3 / RFU, DTX4 / Fold change vs veh, DTX4 / RFU, TFCP2 / Fold change vs veh, TFCP2 / RFU, GMCL1 /// GMCL1P1 / Fold change vs veh, GMCL1 /// GMCL1P1 / RFU, AEBP2 / Fold change vs veh, AEBP2 / RFU, SNHG1 /// SNORD22 /// SNORD25 /// SNORD26 /// SNORD27 /// SNORD28 /// SNORD29 /// SNORD31 / Fold change vs veh, SNHG1 /// SNORD22 /// SNORD25 /// SNORD26 /// SNORD27 /// SNORD28 /// SNORD29 /// SNORD31 / Fold change (Aza/veh), C12orf56 (ProbeSet 11735607_a_at) / Fold change (ACY-1035/veh), C12orf56 (ProbeSet 11735607_a_at) / Fold change (Aza/veh), FGFR1OP (ProbeSet 11751329_s_at) / Fold change (ACY-1035/veh), FGFR1OP (ProbeSet 11751329_s_at) / Fold change (Aza/veh), VPS36 (ProbeSet 11739960_a_at) / Fold change (ACY-1035/veh), VPS36 (ProbeSet 11739960_a_at) / RFU SYPL1 (11715823_x_at) / Fold change /veh SYPL1 (11715823_x_at) / RFU IGFBP7 (11715501_s_at) / Fold change /veh IGFBP7 (11715501_s_at) / RFU REEP3 (11722064_at) / Fold change /veh REEP3 (11722064_at) / RFU IGLL1 (11728026_x_at) / Fold change /veh IGLL1 (11728026_x_at): dose or concentration left out as unconfirmed
Conditions: ProbeSet 11745260_x_at; LIST B

SMILES: Nc1ccc(-c2cccs2)cc1NC(=O)c1ccc2c(c1)cc(C1CC1)n2CCN1CCOCC1 [ACY-1035]
- RFU, SLC12A2: 27.90 RFU
